Assays:
[1] = system: intracellular Ca^2+ stores; assay: Ca2+ release from intracellular stores (FURA-2AM loaded cells); type: cell-based; parameters: key to Ca^2+ (Ca^2+ release from intracellular stores): a “+” denotes release; a “+/−” denotes inconclusive
In short: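 Ca2+ release scored in FURA-2AM loaded cells as "+" (release) or "+/−" (inconclusive); some compounds also tested with ER-targeted FRET Ca2+ sensors. Ca2+-depleting compounds were then tested for eIF2α phosphorylation by Western blot with phospho-specific anti-eIF2α antibody.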

eIF2α = eIF2α phosphorylation measured by Western blot; type: cell-based; details: for eIF2α-P (phosphorylation of eIF2α measured by Western blot): unit or reference not given
Description: As a non-limiting example, compounds 1272 and 1273 (set forth in Table 1) were synthesized starting from 3-bromoaniline, which upon condensation with hydroxylamine and chloral hydrate followed by concentrated sulfuric acid yielded an inseparable regioisomeric mixture of 4- and 6-bromo isatins. The addition of the two phenyl groups to the three position of the oxindole allowed easy chromatographic separation of the 4- and 6-bromo-3,3-diphenyloxindoles 1272 and 1273. Table 1 sets forth biological data for diaryloxindole compounds including, but not limited to 1272 and 1273. For Tables 1-14, Ca^2+ refers to Ca^2+ release from intracellular stores where a “+” denotes release and a “+/−” denotes inconclusive; eIF2α-P refers to phosphorylation of eIF2α measured by Western blot; SRB refers to the inhibitory concentration to reduce cell growth by 50% (IC50) for growth inhibition of A549 lung cancer cells; and n.d. is not determined.
Without intending to be bound by theory, the mechanism of action of translation initiation inhibitors is set forth in FIG. 1, and includes the depletion (complete or partial depletion) of intracellular calcium (Ca^2+) stores and phosphorylation of eIF2α. Compounds synthesized using the approaches described herein were screened for their ability to partially deplete intracellular Ca^2+ stores using FURA-2AM loaded cells (Benzaquen et al. (1995) Nature Medicine, 1:534, incorporated herein by reference in its entirety for all purposes). A limited subset of compounds were further screened for their ability to deplete endoplasmic reticulum (ER) Ca^2+. The Ca^2+ content of the ER was monitored using ER-targeted, Ca^2+ sensitive, recombinant proteins. These recombinant proteins emitted light by fluorescent resonance energy transfer (FRET) as a function of the Ca^2+ content of the medium. Such assays are previously described (Miyawaki, A.; Mizuno, H.; Llopis, J.; Tsien, R. Y.; Jalink, K. Cameleons as cytosolic and intra-organellar calcium probes, Oxford University Press: Oxford, London, 2001; pp 3-16, incorporated herein by reference in its entirety for all purposes). Compounds that depleted Ca^2+ were further evaluated for their ability to phosphorylate eIF2α. eIF2α phosphorylation was measured by Western blot analysis using the phospho-specific anti-eIF2α antibody, as previously described (Aktas et al. (1998) Proc. Natl. Acad. Sci. USA, 95:8280, incorporated herein by reference in its entirety for all purposes).

A549 lung cancer cells = assay: SRB growth inhibition of A549 lung cancer cells; type: cell-based, human; details: for IC50: A549 lung cancer cells, unit inferred, read-out: SRB (IC50 for growth inhibition of A549 lung cancer cells)

SMILES	Ca^2+ (Ca^2+ release from intracellular stores) [1]	eIF2α-P (phosphorylation of eIF2α measured by Western blot) (eIF2α)	IC50 (A549 lung cancer cells) [µM]	eIF2α phosphorylation (in words) (eIF2α)	growth inhibition of cancer cells (in words) (A549 lung cancer cells; A549)	Ca^2+ release / depletion of intracellular Ca^2+ (in words) [1]
CC(C)(C)c1ccc(O)c(C2(c3ccc(F)cc3)C(=O)Nc3ccccc32)c1 (stereo not shown) [Compound 1210]	+	1.86	4	–	–	–
CCc1ccc2c(c1)C(c1ccccc1)(c1ccccc1)C(=O)N2 [Compound 1269]	+	1.64	> 20	–	–	–
O=C1Nc2ccccc2C1(c1ccccc1)c1ccc(O)c(F)c1 (stereo not shown) [Compound 1244]	+	1.38	12	–	–	–
CCc1cccc2c1NC(=O)C2(c1ccccc1)c1cc(C(C)(C)C)ccc1O (stereo not shown) [Compound 1256]	+	1.3	3	–	–	–
CC(C)(C)c1ccc(C2(c3ccccc3)C(=O)Nc3ccccc32)cc1 (stereo not shown) [Compound 1349]	+	1.27	8	–	–	–
CC(C)c1ccc(O)c(C2(c3ccccc3)C(=O)Nc3ccccc32)c1 (stereo not shown) [Compound 1282]	+	4.96	4	–	–	–
C#CC1(c2cc(C(C)(C)C)ccc2O)C(=O)Nc2ccccc21 (stereo not shown) [Compound 1276]	+	0.75	13	–	–	–
O=C(O)c1ccc(Cl)c2c1NC(=O)C2(c1ccccc1)c1ccccc1 [Compound 1392]	+	2.76	4	improved eIF2α phosphorylation	improved growth inhibition of cancer cells	–
O=C1Nc2ccccc2C1(c1ccccc1)c1cc(C2CCCC2)ccc1O (stereo not shown) [Compound 1289]	+	6.49	3	–	–	–
CCCCc1ccc(C2(c3ccccc3)C(=O)Nc3ccccc32)cc1 (stereo not shown) [Compound 1298]	+/−	0.45	8	–	–	–
CC(C)(C)c1ccc(O)c(C2(c3ccccc3)C(=O)Nc3ccc(Cl)cc32)c1 (stereo not shown) [Compound 1215]	+/−	1.1	3	–	–	–
C=CCN1C(=O)C(c2ccccc2)(c2cc(C(C)(C)C)ccc2O)c2ccccc21 (stereo not shown) [Compound 1236]	+/−	2.23	3	–	–	–
CC(C)Cc1ccc(C2(c3ccccc3)C(=O)Nc3ccccc32)cc1 (stereo not shown) [Compound 1297]	+	0.7	8	–	–	–
Cc1ccc(O)c(C2(c3ccccc3)C(=O)Nc3ccccc32)c1 (stereo not shown) [Compound 1278]	+	3.33	8	–	–	–
Cc1cc(C2(c3ccccc3)C(=O)Nc3ccccc32)c(NS(=O)(=O)c2ccc(Br)cc2)cc1O (stereo not shown) [Compound 1591]	+	3.30	3	–	–	–
CCc1cccc2c1C(c1ccccc1)(c1ccccc1)C(=O)N2 [Compound 1270]	+	1.68	> 20	–	–	–
O=C1Nc2c(Br)cccc2C1(c1ccccc1)c1ccccc1 [Compound 1207]	+/−	2.01	3	none of the compounds exhibited an increase in eIF2α phosphorylation relative to compound 1392	–	abrogated Ca^2+ depletion activity
Cc1cc(C2(c3ccccc3)C(=O)Nc3ccccc32)c(NS(=O)(=O)c2ccc([N+](=O)[O-])cc2)cc1O (stereo not shown) [Compound 1589]	+	1	5	–	–	–
CC(C)(C)c1ccc(OCC(=O)O)c(C2(c3ccccc3)C(=O)Nc3ccccc32)c1 (stereo not shown) [Compound 1397]	+	1.46	8	–	–	–
O=C1Nc2ccccc2C1(c1ccccc1)c1cc(C2CCCCC2)ccc1O (stereo not shown) [Compound 1290]	+/−	8.60	3	–	–	–
CC(C)Cc1ccc(O)c(C2(c3ccccc3)C(=O)Nc3ccccc32)c1 (stereo not shown) [Compound 1281]	+	7.94	3	–	–	–
O=C1Nc2ccc([N+](=O)[O-])cc2C1(c1ccccc1)c1ccccc1 [Compound 1265]	+/−	2.35	14	–	–	–
Nc1ccc(CCNC(=O)c2ccc(Cl)c3c2NC(=O)C3(c2ccccc2)c2ccccc2)cc1 [Compound 1355]	+/−	3.80	5	–	–	–
O=C1Nc2ccccc2C1(c1ccc(Cl)cc1)c1ccccc1O (stereo not shown) [Compound 1208]	+	1.42	10	–	–	–
Cc1cccc(C2(c3cc(C(C)(C)C)ccc3O)C(=O)Nc3ccccc32)c1 (stereo not shown) [Compound 1224]	+	1.74	9	–	–	–
Cc1cc(C2(c3ccccc3)C(=O)Nc3ccccc32)c(NS(=O)(=O)Cc2ccccc2)cc1O (stereo not shown) [Compound 1405]	+	1.84	4	–	–	–
CC(C)(C)c1ccc(O)c(C2(c3cccc(F)c3)C(=O)Nc3ccccc32)c1 (stereo not shown) [Compound 1223]	+	4.41	7	–	–	–
CC(C)(C)c1cccc(C2(c3ccccc3)C(=O)Nc3ccccc32)c1 (stereo not shown) [Compound 1217]	+	1.5	4	–	–	–
CC(C)CC(NC(=O)COc1ccc(C(C)(C)C)cc1C1(c2ccccc2)C(=O)Nc2ccccc21)C(=O)NC(CO)Cc1ccccc1 (stereo not shown) [Compound 1400]	+	3.70	3	–	–	–
COc1ccccc1C1(c2ccccc2)C(=O)Nc2ccccc21 (stereo not shown) [Compound 1292]	+/−	1.04	9	–	–	–

From patent US8044089B2, “3-3-di-substituted-oxindoles as inhibitors of translation initiation” (President and Fellows of Harvard College, priority 2004, dated 2011)
